We go through one molecule from patent US20180085432A1, “STING (Stimulator of Interferon Genes), A Regulator of Innate Immune Responses” (University of Miami, priority 2008, published 2018).

For this experiment, the target named is STING (Homo sapiens, UniProt Q86WV6). Kind of experiment: STING cell based assay, drug library screen.
Sequence of STING (Q86WV6 whole entry): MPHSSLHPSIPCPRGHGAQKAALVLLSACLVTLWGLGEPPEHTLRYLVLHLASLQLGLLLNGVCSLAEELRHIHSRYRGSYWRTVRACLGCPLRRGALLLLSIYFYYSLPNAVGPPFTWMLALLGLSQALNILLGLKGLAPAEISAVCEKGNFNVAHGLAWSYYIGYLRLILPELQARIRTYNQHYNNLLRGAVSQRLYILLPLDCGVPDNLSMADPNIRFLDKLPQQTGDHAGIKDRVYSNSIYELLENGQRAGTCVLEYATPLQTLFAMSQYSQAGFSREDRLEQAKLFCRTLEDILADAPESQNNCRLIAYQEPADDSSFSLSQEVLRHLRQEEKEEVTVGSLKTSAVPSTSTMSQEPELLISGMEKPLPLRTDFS

As for `C[C@@H]1O[C@@H](O[C@H]2C[C@@H](O)[C@]3(CO)[C@H]4[C@H](O)C[C@]5(C)[C@@H]([C@@H]6COC(=O)C6)CC[C@]5(O)[C@@H]4CC[C@]3(O)C2)[C@H](O)[C@H](O)[C@H]1O` [dihydroouabain], the “Activators of STING” value is “Activators of STING”.
